Laboratory results: PMC12670405, “Second-Generation AURKA-Targeting PROTACs: Structural Optimization toward in Vivo Degradation in Neuroblastoma” (Journal of Medicinal Chemistry, 2025)

Columns and labels:
Experiment in all cases: KINOMEscan scanMAX
Assay type in all cases: binding
AAK1 = molecular target: T1, AAK1 (Homo sapiens, UniProt Q2M2I8); conditions: read-out: Percent Control
T1 construct: purchased Eurofins Discovery (DiscoverX KINOMEscan scanMAX)
Method: (§1) The kinome-wide binding assay was performed by Eurofins Discovery using the scanMAX screening platform. More information can be found on the Eurofins Discovery Web site.

ABL2 = molecular target: T2, ABL2 (Homo sapiens, UniProt P42684); conditions: read-out: Percent Control
T2 construct: purchased Eurofins Discovery (DiscoverX KINOMEscan scanMAX)
Method: as §1

ASK2 = molecular target: T3, ASK2 (Homo sapiens, UniProt O95382); conditions: read-out: Percent Control
T3 construct: purchased Eurofins Discovery (DiscoverX KINOMEscan scanMAX)
Method: as §1

BMPR1B = molecular target: T4, BMPR1B (Homo sapiens, UniProt O00238); conditions: read-out: Percent Control
T4 construct: purchased Eurofins Discovery (DiscoverX KINOMEscan scanMAX)
Method: as §1

BRK = molecular target: T5, BRK (Homo sapiens, UniProt Q13882); conditions: read-out: Percent Control
T5 construct: purchased Eurofins Discovery (DiscoverX KINOMEscan scanMAX)
Method: as §1

CAMK1 = molecular target: T6, CAMK1 (Homo sapiens, UniProt Q14012); conditions: read-out: Percent Control
T6 construct: purchased Eurofins Discovery (DiscoverX KINOMEscan scanMAX)
Method: as §1

CAMK2B = molecular target: T7, CAMK2B (Homo sapiens, UniProt Q13554); conditions: read-out: Percent Control
T7 construct: purchased Eurofins Discovery (DiscoverX KINOMEscan scanMAX)
Method: as §1

CAMK4 = molecular target: T8, CAMK4 (Homo sapiens, UniProt Q16566); conditions: read-out: Percent Control
T8 construct: purchased Eurofins Discovery (DiscoverX KINOMEscan scanMAX)
Method: as §1

CDK4 = molecular target: T9, CDK4 (Homo sapiens, UniProt P11802); conditions: read-out: Percent Control
T9 construct: purchased Eurofins Discovery (DiscoverX KINOMEscan scanMAX)
Method: as §1

CDK4-cyclinD1 = molecular target: T10, CDK4-cyclinD1 (Homo sapiens, UniProt P11802); conditions: read-out: Percent Control
T10 construct: purchased Eurofins Discovery (DiscoverX KINOMEscan scanMAX)
Method: as §1

CSNK1A1 = molecular target: T11, CSNK1A1 (Homo sapiens, UniProt P48729); conditions: read-out: Percent Control
T11 construct: purchased Eurofins Discovery (DiscoverX KINOMEscan scanMAX)
Method: as §1

DAPK2 = molecular target: T12, DAPK2 (Homo sapiens, UniProt Q9UIK4); conditions: read-out: Percent Control
T12 construct: purchased Eurofins Discovery (DiscoverX KINOMEscan scanMAX)
Method: as §1

DMPK2 = molecular target: T13, DMPK2 (Homo sapiens, UniProt Q6DT37); conditions: read-out: Percent Control
T13 construct: purchased Eurofins Discovery (DiscoverX KINOMEscan scanMAX)
Method: as §1

DYRK1A = molecular target: T14, DYRK1A (Homo sapiens, UniProt Q13627); conditions: read-out: Percent Control
T14 construct: purchased Eurofins Discovery (DiscoverX KINOMEscan scanMAX)
Method: as §1

EGFR(L747-T751del,Sins) = test system: EGFR(L747-T751del,Sins)
Method: as §1

EPHA1 = molecular target: T15, EPHA1 (Homo sapiens, UniProt P21709); conditions: read-out: Percent Control
T15 construct: purchased Eurofins Discovery (DiscoverX KINOMEscan scanMAX)
Method: as §1

EPHA6 = molecular target: T16, EPHA6 (Homo sapiens, UniProt Q9UF33); conditions: read-out: Percent Control
T16 construct: purchased Eurofins Discovery (DiscoverX KINOMEscan scanMAX)
Method: as §1

ERN1 = molecular target: T17, ERN1 (Homo sapiens, UniProt O75460); conditions: read-out: Percent Control
T17 construct: purchased Eurofins Discovery (DiscoverX KINOMEscan scanMAX)
Method: as §1

GAK = molecular target: T18, GAK (Homo sapiens, UniProt O14976); conditions: read-out: Percent Control
T18 construct: purchased Eurofins Discovery (DiscoverX KINOMEscan scanMAX)
Method: as §1

GRK4 = molecular target: T19, GRK4 (Homo sapiens, UniProt P32298); conditions: read-out: Percent Control
T19 construct: purchased Eurofins Discovery (DiscoverX KINOMEscan scanMAX)
Method: as §1

INSRR = molecular target: T20, INSRR (Homo sapiens, UniProt P14616); conditions: read-out: Percent Control
T20 construct: purchased Eurofins Discovery (DiscoverX KINOMEscan scanMAX)
Method: as §1

LCK = molecular target: T21, LCK (Homo sapiens, UniProt P06239); conditions: read-out: Percent Control
T21 construct: purchased Eurofins Discovery (DiscoverX KINOMEscan scanMAX)
Method: as §1

MEK6 = molecular target: T22, MEK6 (Homo sapiens, UniProt P52564); conditions: read-out: Percent Control
T22 construct: purchased Eurofins Discovery (DiscoverX KINOMEscan scanMAX)
Method: as §1

MELK = molecular target: T23, MELK (Homo sapiens, UniProt Q14680); conditions: read-out: Percent Control
T23 construct: purchased Eurofins Discovery (DiscoverX KINOMEscan scanMAX)
Method: as §1

MST1R = molecular target: T24, MST1R (Homo sapiens, UniProt Q04912); conditions: read-out: Percent Control
T24 construct: purchased Eurofins Discovery (DiscoverX KINOMEscan scanMAX)
Method: as §1

MST2 = molecular target: T25, MST2 (Homo sapiens, UniProt Q13188); conditions: read-out: Percent Control
T25 construct: purchased Eurofins Discovery (DiscoverX KINOMEscan scanMAX)
Method: as §1

MYLK = molecular target: T26, MYLK (Homo sapiens, UniProt Q15746); conditions: read-out: Percent Control
T26 construct: purchased Eurofins Discovery (DiscoverX KINOMEscan scanMAX)
Method: as §1

MYLK4 = molecular target: T27, MYLK4 (Homo sapiens, UniProt Q86YV6); conditions: read-out: Percent Control
T27 construct: purchased Eurofins Discovery (DiscoverX KINOMEscan scanMAX)
Method: as §1

PIK3C2G = molecular target: T28, PIK3C2G (Homo sapiens, UniProt O75747); conditions: read-out: Percent Control
T28 construct: purchased Eurofins Discovery (DiscoverX KINOMEscan scanMAX)
Method: as §1

PIK3CA(Q546K) = molecular target: T29, PIK3CA(Q546K) (Homo sapiens, UniProt P42336, Q546K); conditions: read-out: Percent Control
T29 construct: purchased Eurofins Discovery (DiscoverX KINOMEscan scanMAX)
Method: as §1

PLK1 = molecular target: T30, PLK1 (Homo sapiens, UniProt P53350); conditions: read-out: Percent Control
T30 construct: purchased Eurofins Discovery (DiscoverX KINOMEscan scanMAX)
Method: as §1

ROCK1 = molecular target: T31, ROCK1 (Homo sapiens, UniProt Q13464); conditions: read-out: Percent Control
T31 construct: purchased Eurofins Discovery (DiscoverX KINOMEscan scanMAX)
Method: as §1

TAOK3 = molecular target: T32, TAOK3 (Homo sapiens, UniProt Q9H2K8); conditions: read-out: Percent Control
T32 construct: purchased Eurofins Discovery (DiscoverX KINOMEscan scanMAX)
Method: as §1

TNK1 = molecular target: T33, TNK1 (Homo sapiens, UniProt Q13470); conditions: read-out: Percent Control
T33 construct: purchased Eurofins Discovery (DiscoverX KINOMEscan scanMAX)
Method: as §1

ZAK = molecular target: T34, ZAK (Homo sapiens, UniProt Q9NYL2); conditions: read-out: Percent Control
T34 construct: purchased Eurofins Discovery (DiscoverX KINOMEscan scanMAX)
Method: as §1

T10 sequence (P11802 whole entry): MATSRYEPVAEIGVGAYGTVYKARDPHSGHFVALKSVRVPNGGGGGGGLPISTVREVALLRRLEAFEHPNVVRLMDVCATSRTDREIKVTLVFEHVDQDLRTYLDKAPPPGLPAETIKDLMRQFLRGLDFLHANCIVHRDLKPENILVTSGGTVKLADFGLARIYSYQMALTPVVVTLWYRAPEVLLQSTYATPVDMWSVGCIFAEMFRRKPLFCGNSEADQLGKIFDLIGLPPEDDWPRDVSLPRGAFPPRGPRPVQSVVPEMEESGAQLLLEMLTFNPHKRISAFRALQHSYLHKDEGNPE
T10 sequence (P24385 whole entry partner): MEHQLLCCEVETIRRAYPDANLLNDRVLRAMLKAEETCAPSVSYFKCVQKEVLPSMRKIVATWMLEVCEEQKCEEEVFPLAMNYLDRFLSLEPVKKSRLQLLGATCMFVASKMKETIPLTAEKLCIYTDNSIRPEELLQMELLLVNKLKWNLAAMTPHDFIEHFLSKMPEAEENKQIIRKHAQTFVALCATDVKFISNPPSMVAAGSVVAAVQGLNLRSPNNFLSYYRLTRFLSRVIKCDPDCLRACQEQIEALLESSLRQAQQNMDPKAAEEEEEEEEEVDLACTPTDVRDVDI
T9 sequence (P11802 whole entry): as the sequence (P11802 whole entry) above
T15 sequence (P21709 26-976): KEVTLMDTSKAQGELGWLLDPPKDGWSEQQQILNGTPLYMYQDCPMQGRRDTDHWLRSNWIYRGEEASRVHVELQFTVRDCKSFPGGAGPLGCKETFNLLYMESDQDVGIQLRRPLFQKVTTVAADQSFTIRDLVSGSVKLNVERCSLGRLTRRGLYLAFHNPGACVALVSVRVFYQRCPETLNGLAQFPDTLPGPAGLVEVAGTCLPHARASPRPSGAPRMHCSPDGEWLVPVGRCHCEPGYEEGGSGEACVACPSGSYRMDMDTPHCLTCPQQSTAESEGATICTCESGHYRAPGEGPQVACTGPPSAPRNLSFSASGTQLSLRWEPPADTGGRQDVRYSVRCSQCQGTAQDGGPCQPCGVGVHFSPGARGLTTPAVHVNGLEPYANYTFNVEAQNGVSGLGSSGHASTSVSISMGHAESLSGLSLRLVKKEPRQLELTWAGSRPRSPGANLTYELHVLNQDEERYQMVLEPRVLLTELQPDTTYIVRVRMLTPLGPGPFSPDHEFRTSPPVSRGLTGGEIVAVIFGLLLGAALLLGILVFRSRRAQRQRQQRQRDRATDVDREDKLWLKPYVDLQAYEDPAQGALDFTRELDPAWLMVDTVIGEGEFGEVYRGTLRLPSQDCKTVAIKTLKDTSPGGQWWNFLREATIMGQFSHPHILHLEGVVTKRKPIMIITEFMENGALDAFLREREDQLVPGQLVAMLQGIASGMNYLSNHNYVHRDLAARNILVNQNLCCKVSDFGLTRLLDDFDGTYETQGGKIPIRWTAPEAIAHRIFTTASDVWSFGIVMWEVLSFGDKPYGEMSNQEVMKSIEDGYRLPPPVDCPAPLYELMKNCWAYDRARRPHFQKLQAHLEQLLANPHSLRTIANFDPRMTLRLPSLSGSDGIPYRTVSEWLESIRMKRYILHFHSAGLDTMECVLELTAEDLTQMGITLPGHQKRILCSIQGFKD
T17 sequence (O75460 19-977): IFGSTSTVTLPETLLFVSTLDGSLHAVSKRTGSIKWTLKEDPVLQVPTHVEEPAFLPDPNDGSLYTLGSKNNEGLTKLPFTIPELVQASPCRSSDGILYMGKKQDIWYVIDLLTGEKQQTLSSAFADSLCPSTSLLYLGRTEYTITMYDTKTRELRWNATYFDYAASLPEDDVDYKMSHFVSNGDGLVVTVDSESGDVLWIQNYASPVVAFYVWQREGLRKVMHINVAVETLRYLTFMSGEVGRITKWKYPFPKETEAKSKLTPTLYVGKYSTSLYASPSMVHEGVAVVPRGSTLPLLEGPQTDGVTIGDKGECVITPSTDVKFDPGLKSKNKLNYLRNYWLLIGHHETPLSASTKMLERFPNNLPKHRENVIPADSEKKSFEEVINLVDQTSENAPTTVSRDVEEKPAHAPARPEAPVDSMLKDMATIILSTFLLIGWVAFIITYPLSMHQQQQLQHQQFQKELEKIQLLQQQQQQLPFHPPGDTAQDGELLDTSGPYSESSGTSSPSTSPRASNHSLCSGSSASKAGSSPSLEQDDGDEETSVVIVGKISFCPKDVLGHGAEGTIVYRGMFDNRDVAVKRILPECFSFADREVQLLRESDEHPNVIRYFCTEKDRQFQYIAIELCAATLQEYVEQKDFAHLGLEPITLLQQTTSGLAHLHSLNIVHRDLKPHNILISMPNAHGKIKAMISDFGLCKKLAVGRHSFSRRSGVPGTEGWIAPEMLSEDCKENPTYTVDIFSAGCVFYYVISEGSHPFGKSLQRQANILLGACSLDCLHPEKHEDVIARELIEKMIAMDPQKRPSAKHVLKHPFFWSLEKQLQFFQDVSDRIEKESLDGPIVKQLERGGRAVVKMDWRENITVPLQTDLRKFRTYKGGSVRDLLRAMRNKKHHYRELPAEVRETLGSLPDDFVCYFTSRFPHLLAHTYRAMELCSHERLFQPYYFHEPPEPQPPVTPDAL
T11 sequence (P48729 whole entry): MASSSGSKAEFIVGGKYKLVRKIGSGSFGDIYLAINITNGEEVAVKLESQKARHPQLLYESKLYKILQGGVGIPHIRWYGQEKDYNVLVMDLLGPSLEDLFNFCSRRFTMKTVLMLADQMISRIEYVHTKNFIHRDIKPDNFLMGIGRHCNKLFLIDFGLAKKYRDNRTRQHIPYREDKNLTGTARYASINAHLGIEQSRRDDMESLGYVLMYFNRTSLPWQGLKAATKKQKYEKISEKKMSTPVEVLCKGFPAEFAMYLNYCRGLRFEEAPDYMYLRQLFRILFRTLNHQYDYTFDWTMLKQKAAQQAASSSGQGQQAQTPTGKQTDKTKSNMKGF
T7 sequence (Q13554 whole entry): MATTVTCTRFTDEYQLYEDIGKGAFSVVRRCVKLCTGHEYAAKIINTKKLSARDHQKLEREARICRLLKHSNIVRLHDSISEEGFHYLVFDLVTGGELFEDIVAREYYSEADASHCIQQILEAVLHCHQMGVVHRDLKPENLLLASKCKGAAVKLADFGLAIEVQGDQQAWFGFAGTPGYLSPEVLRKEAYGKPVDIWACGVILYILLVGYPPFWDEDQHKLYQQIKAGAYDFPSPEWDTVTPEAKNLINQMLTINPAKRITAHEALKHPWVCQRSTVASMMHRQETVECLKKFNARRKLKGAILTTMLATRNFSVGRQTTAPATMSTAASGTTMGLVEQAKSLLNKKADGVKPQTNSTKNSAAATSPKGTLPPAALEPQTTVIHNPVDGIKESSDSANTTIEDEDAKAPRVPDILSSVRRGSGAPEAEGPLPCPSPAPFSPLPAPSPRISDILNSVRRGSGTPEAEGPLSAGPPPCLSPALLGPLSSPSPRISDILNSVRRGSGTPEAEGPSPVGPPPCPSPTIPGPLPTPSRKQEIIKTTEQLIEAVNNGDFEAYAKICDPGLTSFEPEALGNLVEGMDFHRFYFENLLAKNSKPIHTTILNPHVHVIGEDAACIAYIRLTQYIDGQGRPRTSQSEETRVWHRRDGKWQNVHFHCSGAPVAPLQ
T23 sequence (Q14680 whole entry): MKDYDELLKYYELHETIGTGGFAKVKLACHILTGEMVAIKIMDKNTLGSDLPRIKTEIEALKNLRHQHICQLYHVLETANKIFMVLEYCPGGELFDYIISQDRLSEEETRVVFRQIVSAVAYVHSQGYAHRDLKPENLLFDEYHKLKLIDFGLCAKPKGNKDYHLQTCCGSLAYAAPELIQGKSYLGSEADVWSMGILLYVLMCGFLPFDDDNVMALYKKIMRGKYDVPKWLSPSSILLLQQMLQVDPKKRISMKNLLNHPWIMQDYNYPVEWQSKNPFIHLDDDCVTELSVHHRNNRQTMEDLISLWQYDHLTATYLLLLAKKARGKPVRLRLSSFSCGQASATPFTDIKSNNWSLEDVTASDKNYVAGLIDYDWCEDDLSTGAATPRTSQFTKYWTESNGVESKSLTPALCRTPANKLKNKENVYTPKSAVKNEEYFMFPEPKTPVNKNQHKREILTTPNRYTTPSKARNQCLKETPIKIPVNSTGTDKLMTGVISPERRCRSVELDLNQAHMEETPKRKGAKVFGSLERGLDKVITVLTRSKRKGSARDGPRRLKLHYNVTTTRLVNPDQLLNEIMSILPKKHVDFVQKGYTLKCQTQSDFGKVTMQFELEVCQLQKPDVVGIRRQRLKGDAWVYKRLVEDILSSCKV
T25 sequence (Q13188 whole entry): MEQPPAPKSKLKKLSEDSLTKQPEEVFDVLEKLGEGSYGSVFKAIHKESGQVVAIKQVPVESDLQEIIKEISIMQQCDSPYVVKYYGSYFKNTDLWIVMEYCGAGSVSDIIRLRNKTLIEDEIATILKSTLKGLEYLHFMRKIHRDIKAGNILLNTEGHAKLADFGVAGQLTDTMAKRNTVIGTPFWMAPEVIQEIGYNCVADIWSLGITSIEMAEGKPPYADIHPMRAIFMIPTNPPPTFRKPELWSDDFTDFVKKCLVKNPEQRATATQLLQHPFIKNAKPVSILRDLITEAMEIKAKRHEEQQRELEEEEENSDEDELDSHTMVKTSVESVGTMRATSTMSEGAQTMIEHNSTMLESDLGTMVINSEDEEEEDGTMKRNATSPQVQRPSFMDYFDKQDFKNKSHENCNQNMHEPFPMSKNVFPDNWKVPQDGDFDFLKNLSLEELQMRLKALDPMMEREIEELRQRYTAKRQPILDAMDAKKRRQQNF

In the case of `Cc1cc(Nc2ccc(F)c(CC3(C(=O)N4CCC(F)(CN5CCN(c6ccc(N7CCC(=O)NC7=O)cn6)CC5)CC4)CCN(Cc4cccc(Cl)c4F)CC3)n2)n[nH]1` [SK5527], the remaining binding at 0.1 µM (AAK1; 100 nM) is reported as 100%, the remaining binding at 1 µM (AAK1; 1000 nM) is reported as 92% and the remaining binding at 0.1 µM (ABL2; 100 nM) is reported as 100%. It also gave a remaining binding at 1 µM (ABL2; 1000 nM) of 66%, a remaining binding at 0.1 µM (ASK2; 100 nM) of 62% and a remaining binding at 1 µM (ASK2; 1000 nM) of 56%. The remaining binding at 0.1 µM (BMPR1B; 100 nM) was 77%, the remaining binding at 1 µM (BMPR1B; 1000 nM) was 72% and the remaining binding at 0.1 µM (BRK; 100 nM) was 92%. For the same compound, the remaining binding at 1 µM (BRK; 1000 nM) was 88%, the remaining binding at 0.1 µM (CAMK1; 100 nM) was 100% and the remaining binding at 1 µM (CAMK1; 1000 nM) was 98%. For the same compound, the remaining binding at 0.1 µM (CAMK2B; 100 nM) was 100%, the remaining binding at 1 µM (CAMK2B; 1000 nM) was 100% and the remaining binding at 0.1 µM (CAMK4; 100 nM) was 100%. The remaining binding at 1 µM (CAMK4; 1000 nM) was 100%, the remaining binding at 0.1 µM (CDK4; 100 nM) was 72% and the remaining binding at 1 µM (CDK4; 1000 nM) was 90%. For the same compound, the remaining binding at 0.1 µM (CDK4-cyclinD1; 100 nM) was 100%, the remaining binding at 1 µM (CDK4-cyclinD1; 1000 nM) was 87% and the remaining binding at 0.1 µM (CSNK1A1; 100 nM) was 100%. For the same compound, the remaining binding at 1 µM (CSNK1A1; 1000 nM) was 100%, the remaining binding at 0.1 µM (DAPK2; 100 nM) was 100% and the remaining binding at 1 µM (DAPK2; 1000 nM) was 93%. It also gave a remaining binding at 0.1 µM (DMPK2; 100 nM) of 100%, a remaining binding at 1 µM (DMPK2; 1000 nM) of 100% and a remaining binding at 0.1 µM (DYRK1A; 100 nM) of 79%. For the same compound, the remaining binding at 1 µM (DYRK1A; 1000 nM) was 80%, the “Percent Control” value (EGFR(L747-T751del,Sins); 100 nM) was 83% and the “Percent Control” value (EGFR(L747-T751del,Sins); 1000 nM) was 74%. For the same compound, the remaining binding at 0.1 µM (EPHA1; 100 nM) was 67%, the remaining binding at 1 µM (EPHA1; 1000 nM) was 23% and the remaining binding at 0.1 µM (EPHA6; 100 nM) was 100%. It also gave a remaining binding at 1 µM (EPHA6; 1000 nM) of 93%, a remaining binding at 0.1 µM (ERN1; 100 nM) of 100% and a remaining binding at 1 µM (ERN1; 1000 nM) of 100%. For the same compound, the remaining binding at 0.1 µM (GAK; 100 nM) was 88%, the remaining binding at 1 µM (GAK; 1000 nM) was 99% and the remaining binding at 0.1 µM (GRK4; 100 nM) was 96%. It also gave a remaining binding at 1 µM (GRK4; 1000 nM) of 100%, a remaining binding at 0.1 µM (INSRR; 100 nM) of 97% and a remaining binding at 1 µM (INSRR; 1000 nM) of 90%. The remaining binding at 0.1 µM (LCK; 100 nM) was 82%, the remaining binding at 1 µM (LCK; 1000 nM) was 84% and the remaining binding at 0.1 µM (MEK6; 100 nM) was 100%. For the same compound, the remaining binding at 1 µM (MEK6; 1000 nM) was 94%, the remaining binding at 0.1 µM (MELK; 100 nM) was 99% and the remaining binding at 1 µM (MELK; 1000 nM) was 87%. The remaining binding at 0.1 µM (MST1R; 100 nM) was 100%, the remaining binding at 1 µM (MST1R; 1000 nM) was 100% and the remaining binding at 0.1 µM (MST2; 100 nM) was 76%. The remaining binding at 1 µM (MST2; 1000 nM) was 55%, the remaining binding at 0.1 µM (MYLK; 100 nM) was 76% and the remaining binding at 1 µM (MYLK; 1000 nM) was 47%. For the same compound, the remaining binding at 0.1 µM (MYLK4; 100 nM) was 100%, the remaining binding at 1 µM (MYLK4; 1000 nM) was 100% and the remaining binding at 0.1 µM (PIK3C2G; 100 nM) was 71%. For the same compound, the remaining binding at 1 µM (PIK3C2G; 1000 nM) was 98%, the remaining binding at 0.1 µM (PIK3CA(Q546K); 100 nM) was 81% and the remaining binding at 1 µM (PIK3CA(Q546K); 1000 nM) was 78%. The remaining binding at 0.1 µM (PLK1; 100 nM) was 58%, the remaining binding at 1 µM (PLK1; 1000 nM) was 82% and the remaining binding at 0.1 µM (ROCK1; 100 nM) was 96%. It also gave a remaining binding at 1 µM (ROCK1; 1000 nM) of 81%, a remaining binding at 0.1 µM (TAOK3; 100 nM) of 100% and a remaining binding at 1 µM (TAOK3; 1000 nM) of 100%. It also gave a remaining binding at 0.1 µM (TNK1; 100 nM) of 66%, a remaining binding at 1 µM (TNK1; 1000 nM) of 44% and a remaining binding at 0.1 µM (ZAK; 100 nM) of 77%. For the same compound, the remaining binding at 1 µM (ZAK; 1000 nM) was 85%.
